Laboratory results reported in US8735411B2, “Macrocyclic benzofused pyrimidine derivatives” (AbbVie Inc., priority 2006, dated 2014).

Key:
histamine H4 receptor [1] = molecular target: T1, histamine H4 receptor (Homo sapiens, UniProt Q9H3N8); assay: In vitro histamine H4 potency in FLIPR (Ca2+ flux, HEK-293 cells coexpressing Gαqi5); format: cell-based; set-up: expressed in transfected cells; conditions: Kb for antagonists and inverse agonists, EC50 for partial agonists
Summary of the method: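 Fluo-4-loaded cells read on FLIPR for intracellular Ca2+ rise after compound addition, with pre-addition fluorescence subtracted. Peak responses per concentration expressed as % of the full-agonist histamine response. Concentration–response fits give Kb for antagonists/inverse agonists and EC50 for partial agonists.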
Target sequence in this assay (Q9H3N8 whole entry): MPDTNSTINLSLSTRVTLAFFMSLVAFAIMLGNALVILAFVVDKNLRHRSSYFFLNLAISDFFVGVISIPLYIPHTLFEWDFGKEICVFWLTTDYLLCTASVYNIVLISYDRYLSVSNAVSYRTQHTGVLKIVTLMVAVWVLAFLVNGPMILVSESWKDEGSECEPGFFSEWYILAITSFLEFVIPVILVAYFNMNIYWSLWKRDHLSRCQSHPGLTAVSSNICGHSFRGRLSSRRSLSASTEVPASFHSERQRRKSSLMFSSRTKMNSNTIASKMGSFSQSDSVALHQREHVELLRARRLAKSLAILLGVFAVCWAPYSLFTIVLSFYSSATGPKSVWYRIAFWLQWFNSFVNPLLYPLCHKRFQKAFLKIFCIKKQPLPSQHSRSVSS

histamine H4 receptor [2] = molecular target: T1, histamine H4 receptor; assay: [3H]-histamine competition binding assay on membranes of transfected HEK-293 cells; set-up: expressed in transfected cells; host or cells: HEK-293 cells, transient transfection with pCINeo vector; membranes; conditions: displacement of [3H]-histamine; Ki by Cheng-Prusoff equation; read-out: Potency
Procedure: In this assay, membranes were prepared from HEK-293 cells transiently transfected with the pCINeo expression vector harboring the histamine H4 receptor by homogenization of the cells on ice in TE buffer (50 mM Tris-HCl buffer, pH 7.4, containing 5 mM EDTA), 1 mM benzamidine, 2 μg/ml aprotinin, 1 μg/ml leupeptin, and 1 μg/ml pepstatin. The homogenate was centrifuged at 40,000 g for 20 minutes at 4° C. This step was repeated, and the resulting pellet was resuspended in TE buffer. Aliquots were frozen at −70° C. until needed. On the day of assay, membranes were thawed and diluted with TE buffer. Competition radioligand binding assays were performed with increasing concentrations of test compound in the presence of [^3H]-histamine incubated at 25° C. for 1 hour in a total volume of 0.5 ml of 50 mM Tris, 5 mM EDTA, pH 7.4. All binding reactions were terminated by filtration under vacuum onto polyethylenimine (0.3%) presoaked Unifilters (PerkinElmer Life Sciences) or Whatman GF/B filters (Whatman, Clifton, N.J.) followed by three brief washes with 4 ml of ice-cold TE buffer. Bound radiolabel was determined by liquid scintillation counting. For all of the radioligand competition binding assays, IC50 values and Hill slopes were determined by Hill transformation of the data and Ki values were determined by the Cheng-Prusoff equation.
Target sequence in this assay (Q9H3N8 whole entry, species assumed): as the sequence (Q9H3N8 whole entry) above

neuropathic pain = assay: Analgesic effect against neuropathic pain: L5/L6 spinal nerve ligation (Chung model), von Frey mechanical allodynia; format: in vivo, rat; conditions: 100 micromole/kg i.p., 30 minutes before testing
Procedure: Animals were prepared for testing, by use of a surgical procedure that induces neuropathic pain in one paw. Male Sprague Dawley rats were purchased from Charles River (Portage, Mich.). Prior to surgery, animals were housed in groups and maintained in a temperature-regulated environment. Following nerve ligation surgery, animals were housed in groups, and had access to food and water ad libitum.
The L5 and L6 spinal nerves of anesthetized rats were tightly ligated in a manner described previously (see Kim and Chung, Pain (1992) vol. 50 pp. 355-363). An incision was made on the dorsal portion of the hip and the muscle was blunt-dissected to reveal the spinal processes. The L6 transverse process was removed, and the left side L5 and L6 spinal nerves were tightly ligated with 5.0 braided silk suture. The wound was cleaned, the membrane sewn with 4.0 dissolvable Vicryl suture and the skin closed with wound clips. The paw affected by the surgical procedure (the left paw) develops an allodynic response, a hypersensitivity to mechanical and other stimuli; neuropathic pain is assessed as an increased sensitivity in the surgically affected (left) allodynic paw compared to the control paw on the right side, and measured by comparing the response of the (left side) allodynic paw to the response of the unaffected right side control paw.
For the assessment of neuropathic pain, mechanical allodynia in the affected paw of animals that had undergone spinal nerve ligation was evaluated using testing with von Frey filaments. As described previously by S. R. Chaplan, et al (“Quantitative assessment of tactile allodynia in the rat paw” J. Neurosci. Meth. (1994) vol. 53 pp. 55-63), two weeks following surgery rats were acclimated to a testing box constructed of plexiglass with a wire mesh floor which allowed access to the plantar surface of the animal's hindpaws. Using an Up-Down method (Dixon, Annu. Rev. Pharmacol. Toxicol. (1980) vol. 20, pp. 441-462; Chaplan et al. “Quantitative assessment of tactile allodynia in the rat paw” J. Neuroscience Methods (1994) vol. 53 pp. 55-63), von Frey filaments of increasing stiffness were applied to the plantar surface of the hindpaws and the withdrawal response of the animals was observed; for the surgically affected paw with neuropathic pain (the left side paw) the baseline level of allodynia has a withdrawal threshold of ≦4 g of pressure. […] The efficacy of the compound in reducing neuropathic pain at different doses is determined by comparing response in the surgery-affected paw versus the response in the control paw. This is expressed as the MPE (maximum percent effect), or 100 times the withdrawal threshold of the allodynic (left side) divided by the withdrawal threshold of the control (right side).

inflammatory pain = assay: Analgesic effect against inflammatory pain: carrageenan-induced thermal hyperalgesia, hotbox assay; format: in vivo; conditions: 100 micromole/kg i.p., 90 min after carrageenan, tested 30 min after dosing
Procedure: To assess the effectiveness of representative compounds of the invention against acute model inflammatory pain, animals were tested in an acute model of carrageenan-induced thermal hyperalgesia (see for example, Honore, et al. Behavioural Brain Research 167 (2006) 355-364; Porreca, et al. Journal of Pharmacology and Experimental Therapeutics (2006) vol. 318 pp. 195-205). Carrageenan was injected into the test paw of the animal, and after 90 minutes, the test drug was administered by intraperitoneal dosing; the effect on thermal hyperalgesia was assessed in a hotbox assay which done 30 minutes after the intraperitoneal dosing of the test drug, and the MPE (maximal percent effect) reported by comparison to the control paw (not injected with carrageenan), according to 100 times the withdrawal latency of the carrageenan injected paw (in seconds) divided by the withdrawal latency of the control (not injected with carrageenan) paw.

Row | Compound | Potency (histamine H4 receptor [1]) [nM] | also measured
1 | CN[C@@H]1CCN(c2nc(N)nc3c2CCCc2ccccc2-3)C1 [Example 6, 4-(3-(R)-Methylamino-pyrrolidin-1-yl)-6,7-dihydro-5H-benzo[6,7]cyclohepta[1,2-d]pyrimidin-2-ylamine] | 6.6 | Ki (histamine H4 receptor [2]): 5 nM
2 | Nc1nc2c(c(N3CCNCC3)n1)CCCc1ccccc1-2 [Example 7, 4-Piperazin-1-yl-6,7-dihydro-5H-benzo[6,7]cyclohepta[1,2-d]pyrimidin-2-ylamine] | 15 | MPE (neuropathic pain): 30%; MPE (inflammatory pain): 23%; Ki (histamine H4 receptor [2]): 8 nM
3 | Nc1nc2c(c(N3CC[C@@H](N)C3)n1)CCCc1ccccc1-2 [Example 16, 4-((3R)-3-Amino-pyrrolidin-1-yl)-6,7-dihydro-5H-benzo[6,7]cyclohepta[1,2-d]pyrimidin-2-ylamine] | – | MPE (neuropathic pain): 47%; MPE (inflammatory pain): 68%
4 | Nc1nc(NC2CCCC3CNCC32)c2c(n1)-c1ccccc1CCC2 (stereo not shown) [Example 122, N^4-(Octahydro-isoindol-4-yl)-6,7-dihydro-5H-benzo[6,7]cyclohepta[1,2-d]pyrimidine-2,4-diamine] | 1288 | –
5 | Nc1nc2c(c(N3CC[C@@H](N)C3)n1)CCSc1ccccc1-2 [Example 35, 4-(3-(R)-Amino-pyrrolidin-1-yl)-5,6-dihydro-7-thia-1,3-diaza-dibenzo[a,c]cyclohepten-2-ylamine] | 891 | –
6 | Nc1nc2c(c(N3CCNCC3)n1)CCc1ccccc1-2 [Example 44, 4-Piperazin-1-yl-5,6-dihydro-benzo[h]quinazolin-2-ylamine] | 24 | –
7 | CN1CCC2CN(c3nc(N)nc4c3CCCc3ccccc3-4)CC2C1 (stereo not shown) [Example 85, 4-(5-Methyl-octahydro-pyrrolo[3,4-c]pyridin-2-yl)-6,7-dihydro-5H-benzo[6,7]cyclohepta[1,2-d]pyrimidin-2-ylamine] | 85 | –
8 | CN(C)CCOc1nc(N)nc2c1CCCc1ccccc1-2 [Example 74, 4-(2-Dimethylamino-ethoxy)-6,7-dihydro-5H-benzo[6,7]cyclohepta[1,2-d]pyrimidin-2-ylamine] | 219 | –
9 | Nc1nc2c(c(N3CC[C@H]4CNC[C@H]43)n1)CCCc1ccccc1-2 [Example 119, (3aS,6aS)-4-(Hexahydro-pyrrolo[3,4-b]pyrrol-1-yl)-6,7-dihydro-5H-benzo[6,7]cyclohepta[1,2-d]pyrimidin-2-amine] | 269 | –
10 | CN[C@H]1CCN(c2nc(N)nc3c2CCCc2ccccc2-3)C1 [Example 14, 4-[(3S)-3-Methylamino-pyrrolidin-1-yl]-6,7-dihydro-5H-benzo[6,7]cyclohepta[1,2-d]pyrimidin-2-ylamine] | 331 | –
11 | Nc1nc2c(c(N3CCNCC3)n1)CCSc1ccccc1-2 [Example 36, 4-Piperazin-1-yl-5,6-dihydro-7-thia-1,3-diaza-dibenzo[a,c]cyclohepten-2-ylamine] | 39 | –
12 | CN[C@@H]1CCN(c2nc(N)nc3c2CCOc2ccccc2-3)C1 [Example 31, 4-((R)-3-Methylamino-pyrrolidin-1-yl)-5,6-dihydro-7-oxa-1,3-diaza-dibenzo[a,c]cyclohepten-2-ylamine] | 27 | –
13 | CN[C@@H]1CCN(c2nc(N)nc3c2CCOc2c(OC)cccc2-3)C1 [Example 53, 8-methoxy-4-[(3R)-3-(methylamino)pyrrolidin-1-yl]-5,6-dihydro[1]benzoxepino[5,4-d]pyrimidin-2-amine] | 100 | –
14 | Nc1nc2c(c(N3CCNCC3)n1)CCOc1cc(I)ccc1-2 [Example 101, 9-Iodo-4-piperazin-1-yl-5,6-dihydro-7-oxa-1,3-diaza-dibenzo[a,c]cyclohepten-2-ylamine] | 269 | –
15 | COC(=O)c1ccc2c(c1)OCCc1c-2nc(N)nc1N1CC2CCCNC2C1 (stereo not shown) [Example 108, 2-Amino-4-octahydro-pyrrolo[3,4-b]pyridin-6-yl-5,6-dihydro-7-oxa-1,3-diaza-dibenzo[a,c]cycloheptene-9-carboxylic acid methyl ester] | 53 | –
16 | CN[C@@H]1CCN(c2nc(N)nc3c2CCOc2ccc(Cl)cc2-3)C1 [Example 45, 10-chloro-4-[(3R)-3-(methylamino)pyrrolidin-1-yl]-5,6-dihydro[1]benzoxepino[5,4-d]pyrimidin-2-amine] | 69 | –
17 | Nc1nc2c(c(N3CCNCC3)n1)CCCCCc1ccccc1-2 [Example 21, 4-Piperazin-1-yl-6,7,8,9-tetrahydro-5H-1,3-diaza-dibenzo[a,c]cyclononen-2-ylamine] | 5623 | –
18 | CN[C@@H]1CCN(c2nc(N)nc3c2CC(C)c2ccccc2-3)C1 (stereo partly drawn) [Example 1, 6-Methyl-4-[(3R)-3-methylamino-pyrrolidin-1-yl]-5,6-dihydro-benzo[h]quinazolin-2-ylamine] | 18 | –
19 | Nc1nc2c(c(N3CCC(N4CCCCC4)C3)n1)CCCc1ccccc1-2 (stereo not shown) [Example 18, 4-(3-Piperidin-1-yl-pyrrolidin-1-yl)-6,7-dihydro-5H-benzo[6,7]cyclohepta[1,2-d]pyrimidin-2-ylamine] | 25704 | –
20 | CNC1CN(c2nc(N)nc3c2CCS(=O)(=O)c2ccccc2-3)C1 [Example 38, 4-(3-Methylamino-azetidin-1-yl)-7,7-dioxo-6,7-dihydro-5H-7λ6-thia-1,3-diaza-dibenzo[a,c]cyclohepten-2-ylamine] | 5754 | –
21 | CN[C@@H]1CCN(c2nc(N)nc3c2CCCc2ccc(F)cc2-3)C1 [Example 11, 10-Fluoro-4-(3-(R)-methylamino-pyrrolidin-1-yl)-6,7-dihydro-5H-benzo[6,7]cyclohepta[1,2-d]pyrimidin-2-ylamine] | 7.8 | –
22 | CN1[C@@H]2CC[C@H]1CC(Nc1nc(N)nc3c1CCCc1ccccc1-3)C2 (stereo partly drawn) [Example 66, N^4-[(1R,5S)-8-methyl-8-azabicyclo[3.2.1]oct-3-yl]-6,7-dihydro-5H-benzo[6,7]cyclohepta[1,2-d]pyrimidine-2,4-diamine] | 17 | –
23 | Nc1nc2c(c(N3CC[C@H](N)C3)n1)CCCCc1ccccc1-2 [Example 56, 4-[(3S)-3-aminopyrrolidin-1-yl]-5,6,7,8-tetrahydrobenzo[7,8]cycloocta[1,2-d]pyrimidin-2-amine] | 115 | –
